What was measured:
human S1P1 receptor = target: T1, human S1P1 receptor (Homo sapiens, UniProt P21453); experiment: GTP γ35S binding assay, S1P1 activity; format: biochemical; details: membranes of cells stably expressing S1P1 receptor, agonist potency
T1 construct: expressed in transfected cells; membranes used
Description: Compounds were synthesized and tested for S1P1 activity using the GTP γ^35S binding assay. These compounds may be assessed for their ability to activate or block activation of the human S1P1 receptor in cells stably expressing the S1P1 receptor.
GTP γ^35S binding was measured in the medium containing (mM) HEPES 25, pH 7.4, MgCl2 10, NaCl 100, dithitothreitol 0.5, digitonin 0.003%, 0.2 nM GTP γ^35S, and 5 μg membrane protein in a volume of 150 μl. Test compounds were included in the concentration range from 0.08 to 5,000 nM unless indicated otherwise. Membranes were incubated with 100 μM 5′-adenylylimmidodiphosphate for 30 min, and subsequently with 10 μM GDP for 10 min on ice. Drug solutions and membrane were mixed, and then reactions were initiated by adding GTP γ^35S and continued for 30 min at 25° C. Reaction mixtures were filtered over Whatman GF/B filters under vacuum, and washed three times with 3 mL of ice-cold buffer (HEPES 25, pH 7.4, MgCl2 10 and NaCl 100). Filters were dried and mixed with scintillant, and counted for ^35S activity using a β-counter. Agonist-induced GTP γ^35S binding was obtained by subtracting that in the absence of agonist. Binding data were analyzed using a non-linear regression method. In case of antagonist assay, the reaction mixture contained 10 nM […] in the presence of test antagonist at concentrations ranging from 0.08 to 5000 nM.

lymphocytes in the blood = experiment: Lymphopenia assay in mice; format: in vivo; details: female C57BL6 mice, 10 mg/Kg subcutaneously, after 96 h of drug application (FIG. 1)
Description: Lymphopenia Assay in Mice
Compound 1, 5-{3-[3-chloro-4-(2,3-dihydroxypropoxy)phenyl]-1,2,4-oxadiazol-5-yl}-2-isopropoxybenzonitrile, was prepared in a solution containing 3% (w/v) 2-hydroxy propyl β-cyclodextrin (HPBCD) and 1% DMSO to a final concentration of 1 mg/ml, and subcutaneously injected to female C57BL6 mice (CHARLES RIVERS) weighing 20-25 g at the dose of 10 mg/Kg. Blood samples were obtained by puncturing the submandibular skin with a Goldenrod animal lancet at 24, 48, 72, and 96 hrs post drug application. Blood was collected into microvettes (SARSTEDT) containing EDTA tripotassium salt. Lymphocytes in blood samples were counted using a HEMAVET Multispecies Hematology System, HEMAVET HV950FS (Drew Scientific Inc.). (Hale, J. et al Bioorg. & Med. Chem. Lett. 14 (2004) 3351).The results are presented in FIG. 1: the number of lymphocytes in the blood was reduced by Compound 1 after 96 h of drug application.

T1 sequence (P21453 whole entry): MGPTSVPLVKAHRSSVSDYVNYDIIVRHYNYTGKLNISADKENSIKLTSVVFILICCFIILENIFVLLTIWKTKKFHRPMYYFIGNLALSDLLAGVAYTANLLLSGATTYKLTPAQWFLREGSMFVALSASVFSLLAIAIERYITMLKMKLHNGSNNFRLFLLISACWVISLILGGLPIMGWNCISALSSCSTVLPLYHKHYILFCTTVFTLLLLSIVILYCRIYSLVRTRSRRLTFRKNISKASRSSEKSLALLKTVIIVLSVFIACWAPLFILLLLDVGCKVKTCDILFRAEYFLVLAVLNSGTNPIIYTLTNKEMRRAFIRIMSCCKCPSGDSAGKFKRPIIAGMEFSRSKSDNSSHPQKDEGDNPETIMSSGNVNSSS

Row | EC50 (human S1P1 receptor) [nM] | SMILES | number of lymphocytes in the blood (lymphocytes in the blood)
1 | 10.3 | CC(C)Oc1ccc(-c2nc(-c3ccc(OCC(O)CO)c(Cl)c3)no2)cc1C#N (centres unmarked) [Compound 1, 5-{3-[3-chloro-4-(2,3-dihydroxypropoxy)phenyl]-1,2,4-oxadiazol-5-yl}-2-isopropoxybenzonitrile] | reduced
2 | 20.4 | COP(=O)(O)OCC(O)COc1ccc(-c2noc(-c3ccc(OC(C)C)c(C#N)c3)n2)cc1Cl (centres unmarked) [Compound 3, 3-{2-chloro-4-[5-(3-cyano-4-isopropoxyphenyl)-1,2,4-oxadiazol-3-yl]phenoxy}-2-hydroxypropyl methyl hydrogen phosphate] | –
3 | 4580 | CC(C)Oc1ccc(-c2nc(-c3ccc(OCC(O)COP(=O)(O)O)c(Cl)c3)no2)cc1C#N (centres unmarked) [Compound 4, 3-{2-chloro-4-[5-(3-cyano-4-isopropoxyphenyl)-1,2,4-oxadiazol-3-yl]phenoxy}-2-hydroxypropyl dihydrogen phosphate] | –

Row | SMILES | EC50 (human S1P1 receptor) [nM] | number of lymphocytes in the blood (lymphocytes in the blood)
4 | COP(=O)(OC)OCC(O)COc1ccc(-c2noc(-c3ccc(OC(C)C)c(C#N)c3)n2)cc1Cl (centres unmarked) [Compound 2, 3-{2-chloro-4-[5-(3-cyano-4-isopropoxyphenyl)-1,2,4-oxadiazol-3-yl]phenoxy}-2-hydroxypropyl dimethyl phosphate] | 2.88 | –
